Experimental data from US6083940A, “Method and composition for effecting contraception in a mammalian male” (SRI International, priority 1998, dated 2000).
Entries after “also recorded” stand apart in the source; their conditions may differ.

Key:
[1] = target: T1, Rat Prostate Androgen Receptor (Rattus norvegicus, UniProt P15207); assay: Rat Prostate Androgen Receptor Competition Assay; assay type: binding
T1 construct: from tissue; host or cells: prostate cytosol (100,000×g supernatant) of gonadectomized male rats
T1 sequence (P15207 1-902): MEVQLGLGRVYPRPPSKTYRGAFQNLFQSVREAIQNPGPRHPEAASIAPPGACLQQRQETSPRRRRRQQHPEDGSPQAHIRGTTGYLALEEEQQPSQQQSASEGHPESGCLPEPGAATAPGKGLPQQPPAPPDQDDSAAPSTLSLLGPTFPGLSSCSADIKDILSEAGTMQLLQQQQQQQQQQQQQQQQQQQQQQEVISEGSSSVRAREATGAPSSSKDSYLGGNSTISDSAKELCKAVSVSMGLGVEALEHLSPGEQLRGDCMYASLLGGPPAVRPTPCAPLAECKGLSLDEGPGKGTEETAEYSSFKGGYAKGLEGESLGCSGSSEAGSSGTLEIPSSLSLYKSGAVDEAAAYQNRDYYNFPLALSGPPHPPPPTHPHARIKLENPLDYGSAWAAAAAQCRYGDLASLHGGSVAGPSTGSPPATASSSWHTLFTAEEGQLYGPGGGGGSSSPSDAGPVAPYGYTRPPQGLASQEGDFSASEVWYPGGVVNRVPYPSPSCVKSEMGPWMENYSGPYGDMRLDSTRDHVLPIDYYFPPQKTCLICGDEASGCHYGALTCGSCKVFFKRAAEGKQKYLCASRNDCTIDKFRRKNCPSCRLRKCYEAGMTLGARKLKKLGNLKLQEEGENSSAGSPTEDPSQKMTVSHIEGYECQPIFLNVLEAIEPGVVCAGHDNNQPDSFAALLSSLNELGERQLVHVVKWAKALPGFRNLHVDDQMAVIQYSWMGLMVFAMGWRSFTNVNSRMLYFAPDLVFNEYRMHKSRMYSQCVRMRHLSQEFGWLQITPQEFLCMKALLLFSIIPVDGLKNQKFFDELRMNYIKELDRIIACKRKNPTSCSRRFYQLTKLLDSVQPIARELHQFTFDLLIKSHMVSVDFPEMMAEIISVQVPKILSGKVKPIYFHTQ
Procedure: Male rats were gonadectomized 20-22 hours before killing. The animals were killed by decapitation and exsanguination. Prostates were kept on ice immediately after removal from the animals. After trimming off the fats, prostates were minced and homogenized in 3 volumes of Tris-HCl buffer (0.02 M, pH 7.4 containing 1.5 mM EDTA and 10% glycerol). The homogenate was centrifuged at 10,000×g for 10 minutes, and the resulting supernatant was centrifuged again at 100,000×g for 60 minutes. The final supernatant contained the androgen-binding receptor.
The mixture was brought up to 1.0 mL with Tris-HCl buffer used for homogenizing the tissue. The mixture was then incubated at 4° C. for 4 hr., with occasional shaking. At the end of incubation, the receptor-bound androgen was isolated by ammonium sulfate precipitation.
A 70% saturated ammonium sulfate solution was prepared and its pH is adjusted to 7.4 with aqueous NH3. To 1.0 mL of the labeled cytosol, 1.0 mL of the 70% saturated ammonium sulfate was added dropwise with gentle mixing. The sample was let stand at 0-4° C. for 35 minutes, then centrifuged at 10,000×g for 20 minutes. The precipitate was resuspended in 1.0 mL of the above-mentioned Tris-HCl buffer containing 2 mg of bovine albumin. The androgen-receptor complex was immediately reprecipitated by addition of equal volumes of 70% saturated ammonium sulfate. The sample was allowed to stand at 0-4° C. for another 45 minutes, then centrifuged again as outlined above. The supernatant was decanted and the walls of the tubes thoroughly dried with filter paper. The final precipitated protein was resuspended in 1.0 mL of the same buffer and then transferred quantitatively into a counting vial containing 10 mL of Scintisol for counting.

[2] = system: SEX ACCESSORY GLANDS AND TESTES OF 22-DAY OLD CASTRATED MALE RATS; assay: Inhibition of Prostate Growth in Castrated Male Rats (testosterone supplemented); assay type: in vivo, rat
Procedure: Male rats weighing 36 to 38 grams were castrated at the age of 22 days. […] The castrated rats were treated with the steroids once daily for ten consecutive days. On the tenth day following treatment, the rats were sacrificed and autopsied and final seminal vesicle weights and ventral prostate weights determined.

[3] = system: SEX ACCESSORY GLANDS AND TESTES OF INTACT SPRAGUE-DAWLEY MALE RATS; assay: Effect of Different Doses of Antiandrogen Compound III-1 on Sex Accessory Glands and Testes of Intact Sprague-Dawley Male Rats; assay type: in vivo, Sprague-Dawley rat; settings: for Body Weight / Epididymus weight / Seminal Vesicle weight / Ventral Prostate weight / Testes weight: N=4, mean ± SE; for Seminal Vesicle weight: P < .005; for Ventral Prostate weight: P < .01
Description: The foregoing procedures were used to evaluate the effect of antiandrogen compound III-1 on the sex accessory glands and tests of intact Sprague-Dawley male rats. As may be seen in the Table, […], indicating antagonism on the effect of the testosterone produced.
^a Administered subcutaneously once daily for 12 days

[4] = system: 22 day old castrated male rats, seminal vesicle and ventral prostate; assay: standard Hershberger androgenic assay (agonist androgenic activity); assay type: in vivo, rat
[5] = system: rat ventral prostate explant cultures (prostatein C3 mRNA); assay: Measurement of Prostatein C3 mRNA in rat ventral prostate explant culture
Description: Testosterone was used as a control. […] Addition of androgens to the medium of rat prostate explant cultures maintains the mRNA for C3 subunit of prostatein, and measurement of either prostatein or its C3 subunit mRNA serves as a sensitive, androgen-responsive marker for the explant system.

[6] = compound 30.0 mg/day + testosterone propionate 0.6 mg/day, ten days, mean ± SE
[7] = 10 mg/day subcutaneously once daily for 12 days, statistically lower than control
[8] = 30 mg/day subcutaneously once daily for 12 days, statistically lower than control, P < .001
[9] = 30 mg/day subcutaneously once daily for 12 days, statistically lower than control
[10] = doses of 0.8 mg, 1.6 mg, and 3.2 mg, versus vehicle alone
[11] = III-1 2500 nM with dihydrotestosterone 25 nM, N=2

## C[C@]12Cc3nonc3C[C@@H]1CC[C@@H]1[C@@H]2CC[C@@]2(C)[C@H]1CC[C@@]21CCCO1 [Compound III-1, 2',3'α-Tetrahydrofuran-2'-spiro-17-(5α-androstan(2,3-c]furazan]
[1]; 5α-DHT set at 100, conc. of 5αDHT at 50% binding inhibition/conc. competitor at 50% binding inhibition × 100
  Relative Binding Affinity: 5.8
[1]; Table 3, repeats the values of Table 1
  Relative androgen receptor binding affinity: 5.8
[1]; in words
  affinity for the rat prostate androgen receptor compared with other known antiandrogens: higher affinity for the androgen rat prostate receptor than all of the other known antiandrogens except cyproterone acetate; also recorded: higher affinity for the rat ventral prostate androgen receptor than the steroidal antiandrogen zanoterone (WIN®49,596); also recorded: higher affinity to the androgen receptor than three other nonsteroidal antiandrogen receptor antagonists flutamide, which is available as an antiandrogen in the United States, nilutamide, developed by Roussel in France, and Casodex® (ICI 176,334)
[2]; castrated male rats given supplemental testosterone
  In Vivo Percent Inhibition of Ventral Prostate Weight: 32.2 ± 9.49%
[2]; [6]
  Final BW: 89 ± 5 g
  Seminal Vesicle weight: 22.5 ± 1.1 mg
  Ventral Prostate weight: 39.5 ± 4.1 mg
[2]; male castrated rats, in words
  inhibition of prostate growth stimulated by exogenous testosterone: inhibit prostate growth stimulated by exogenous testosterone
[3]; 10 mg/day subcutaneously once daily for 12 days, not statistically different from control
  Body Weight: 295 ± 5 g
[3]; 10 mg/day subcutaneously once daily for 12 days, statistically lower than control, P < .001
  Epididymus weight: 524 ± 48 mg
[3]; [7]
  Seminal Vesicle weight: 225 ± 40 mg
  Ventral Prostate weight: 170 ± 13 mg
[3]; 10 mg/day subcutaneously once daily for 12 days, statistically lower than control, P < .02
  Testes weight: 2.552 ± 111 g
[3]; [8]
  Epididymus weight: 458 ± 39 mg
  Testes weight: 1.942 ± .062 g
[3]; [9]
  Seminal Vesicle weight: 242 ± 61 mg
  Ventral Prostate weight: 148 ± 28 mg
[3]; 30 mg/day subcutaneously once daily for 12 days, statistically lower than control, P < .05
  Body Weight: 277 ± 9 g
[3]; Table 4, tentative conclusion
  magnitude of prostatic growth inhibition, dose dependence: appears to be dose dependent
[4]; 22 day old castrated male rats
  dose response curves for androgenic activity: Very flat dose response curves
[4]; by extrapolation to 30.0 mg, castrated male rat
  agonist androgenic activity at the therapeutically effective antiandrogenic dose: essentially devoid of agonist androgenic activity
[4]; [10]
  seminal vesicle weight (agonist androgenic activity): equal to the vehicle alone controls
  ventral prostate weight (agonist androgenic activity): equal to the vehicle alone controls
[4]; increasing dose, in words
  effect of drug dosage on prostate weight (FIG. 1): fairly steady prostate weight, even at higher doses
[5]; [11]
  C3/28s × 100, percent of dihydrotestosterone: 62%
  C3 m-RNA, percent of dihydrotestosterone: 43%
[5]; III-1 2500 nM with dihydrotestosterone 25 nM, N=2, 30 disks/explant, printed spread ± 1,603
  C3 m-RNA: 95,130
[5]; III-1 2500 nM with dihydrotestosterone 25 nM, N=2, printed spread ± 0.8
  C3/28s × 100: 91.8
[5]; III-1/dihydrotestosterone formulation, in words
  anti-androgenic activity: marked anti-androgenic activity
